# Assay results taken from ChEMBL document CHEMBL3886997, “Biaryl- or heterocyclic biaryl-substituted cyclohexene derivative compounds as CETP inhibitors” (2016).
# Target: T1, Cholesteryl ester transfer protein (Homo sapiens, UniProt P11597)
# T1 sequence (P11597 whole entry): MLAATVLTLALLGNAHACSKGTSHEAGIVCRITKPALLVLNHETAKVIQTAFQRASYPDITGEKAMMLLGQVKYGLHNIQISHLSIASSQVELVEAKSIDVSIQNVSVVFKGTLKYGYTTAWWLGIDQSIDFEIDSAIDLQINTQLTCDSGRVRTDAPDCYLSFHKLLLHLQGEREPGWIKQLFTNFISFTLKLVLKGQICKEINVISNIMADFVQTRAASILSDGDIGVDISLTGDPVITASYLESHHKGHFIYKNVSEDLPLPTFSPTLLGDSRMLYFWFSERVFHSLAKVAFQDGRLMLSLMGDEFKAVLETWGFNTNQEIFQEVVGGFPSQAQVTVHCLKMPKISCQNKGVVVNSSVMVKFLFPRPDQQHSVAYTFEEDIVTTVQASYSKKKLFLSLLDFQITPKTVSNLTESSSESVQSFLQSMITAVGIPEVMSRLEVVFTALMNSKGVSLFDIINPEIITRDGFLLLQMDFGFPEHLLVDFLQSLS
# Experiment: Cholesteryl Ester Transfer Assay: As a protein source for cholesteryl ester transfer, plasma from healthy persons was used, and as a cholesteryl ester receptor, LDL from healthy persons was used. Samples were treated with each test compound to final concentrations of 16, 80, 400, 2000 and 10000 nM and analyzed in duplicate. For the cholesteryl ester transfer test, 20 μl of plasma, 50 μl of LDL (0.25 mg/ml) and 50 μl of rHDL-agarose (0.25 mg/ml) were added, and a solution containing a test compound was added, followed by reaction at 37° C. Then, centrifugation was performed at 4° C. for 3 minutes to stop the reaction, and 150 μl of the supernatant was taken and transferred to a 96-well plate for radioactivity measurement, and the radioactivity of the plate was measured with a beta-ray detector.
# Format: cell-free
row,Structure (SMILES),IC50 [nM]
1,COc1cc(C(F)(F)F)c(-c2ccc(C(=O)O)cc2F)cc1C1=C(CN2C(=O)O[C@H](c3cc(C(F)(F)F)cc(C(F)(F)F)c3)[C@@H]2C)CC(C)(C)CC1,9.1
2,COc1cc(C(F)(F)F)c(-c2ccc(C(=O)O)cc2Cl)cc1C1=C(CN2C(=O)O[C@H](c3cc(C(F)(F)F)cc(C(F)(F)F)c3)[C@@H]2C)CC(C)(C)CC1,12.3
